Measured values from article PMC11009648, “Development of an orally bioavailable mSWI/SNF ATPase degrader and acquired mechanisms of resistance in prostate cancer” (Proceedings of the National Academy of Sciences of the …, 2024).
“Also recorded” adds a separate entry of the source.

Tests used:
[1] = test system: 22Rv1-wild type (WT) cells; assay: CellTiter-Glo cell viability assay in 22Rv1 wild type cells; assay type: cell-based, human; conditions: Homo sapiens, 22Rv1, Fig. S5F; 22Rv1 WT
Procedure: (§1) Cells were seeded onto 96-well plates in appropriate culture media and allowed to adhere overnight prior to treatment. The next day, a nine-point serial dilution of the compounds was prepared and added to the plates. After treatment, the cells were then incubated for an additional 5 d. On the last day of treatment, the CellTiter-Glo cell viability assay (Promega) was then executed in accordance with the manufacturer’s guidelines. The signal (luminescence) from each well was determined using an Infinite M1000 Pro plate reader (Tecan). Relative viability was determined by dividing the signal from each well by the average of the control condition in each experiment. Finally, the data were analyzed and plotted using GraphPad Prism.

[2] = In vivo pharmacokinetics in mice; conditions: mouse, plasma, oral, dose escalation (Fig. 1G)
[3] = test system: VCaP castration-resistant tumor model; assay: CRPC-VCaP xenograft efficacy study; assay type: in vivo
Procedure: Six-week-old CB17 (male) SCID mice were obtained from the breeding colony at the U-M. For all studies, tumors were measured two or three times per week using digital calipers, and tumor volumes were calculated using the formula (π/6) (L × W2), where L is length and W is width of the tumor. At study endpoint, mice were killed, and tumors were extracted and weighed. […] Once tumors grew to a palpable size (~400 mm^3), the mice were physically castrated. Once those tumors regained their precastration size, mice were then randomized and treated with either 15 mg/kg AU-24118 or vehicle by oral gavage 3 d per week with or without enzalutamide (10 mg/kg) by oral gavage 5 d per week for 4 wk.
IHC was performed on 4 µm formalin-fixed, paraffin-embedded tissue sections using BRG1 (SMARCA4), AR, FOXA1, ERG and C-Myc. The IHC process was performed on the Ventana ULTRA automated slide staining system using the Omnimap and Ultraview Universal DAB detection kit. The antibody details are provided in SI Appendix, Table S1. The following commercial kits from Roche-Ventana Medical System were used: Discovery CC1 (Cat No. 950-500), Discovery CC2 (Cat No. 950-123), OptiView Universal DAB Detection Kit (Cat No. 760-700), and OmniMap Universal DAB Detection Kit (Cat No. 760-149).
The TUNEL and In Situ Cell Death Detection Kits (TMR Red #12156792910; Roche Applied Science) were used to examine apoptosis, following the manufacturer’s instructions. Briefly, fixed sections were permeabilized with Triton X-100 and then washed in phosphate-buffered saline. Labeling was carried out at 37 °C for 60 min by addition of a reaction buffer that contained enzymes. A Zeiss Axiolmager M1 microscope was used to obtain images.

[4] = test system: 22Rv1 AUR-2 cells; assay: CellTiter-Glo cell viability assay in AU-15330-resistant 22Rv1 AUR-2 cells (SMARCA4 mutation); assay type: cell-based, human; conditions: dose-response (Fig. S4C)
Text: The rising importance of the mSWI/SNF complex as a therapeutic target and the success ([32], [33]) of developing next-generation PROTAC degraders targeting the mSWI/SNF complex prompted us to proactively study potential resistance mechanisms that cancer cells may develop in response to this class of compounds. To achieve this, we cultured 22Rv1 cells in either DMSO or a lethal dose of AU-15330 for 1 mo, refreshing the drug twice a week, until resistant cells emerged. Upon obtaining a population of resistant cells, we unbiasedly characterized the genomic and transcriptomic alterations using whole-exome sequencing and bulk RNA sequencing (RNA-seq), respectively (Fig. 3A).
as §1, with “On the last day of treatment, the CellTiter-Glo cell viability assay (Promega) was then executed in accordance with the manufacturer’s guidelines.” left out

[5] = Toxicity and maximum tolerated dose in tumor-free CB17 SCID mice; assay type: in vivo
Procedure: To evaluate the preclinical safety of AU-24118, we conducted extensive toxicity analyses with AU-24118 in mice. First, to establish the maximum tolerated dose, we implemented a dosage escalation experiment in CB17 SCID (severe combined immunodeficiency) tumor-free mice.
We further characterized the host organ (spleen, kidney, and liver) morphology and function upon AU-24118 treatment at the maximum tolerated dose (15 mg/kg) in CB17 SCID mice. […] Additionally, we evaluated liver and kidney function using a blood panel on a separate cohort of CB17 SCID mice that underwent 25 d treatment with AU-24118 at the maximum tolerated dose.
Organs (liver, spleen, and kidney) were harvested from mice and fixed in neutral buffered formalin (10%) and subsequently embedded in paraffin to generate tissue blocks. These blocks were then sectioned at a thickness of 4 µm and stained using Harris hematoxylin (Leica Surgipath) and alcoholic eosin-Y stain (Leica Surgipath). Staining was executed using the automated Leica autostainer-XL platform. Upon staining, the sections were subsequently analyzed by two pathologists on a brightfield microscope to determine morphology and architectural coherence. These pathological assessments were performed in a blinded manner. Detailed and comprehensive analysis of cellular and -subcellular level changes of organs were performed as previously described ([16]).

[6] = test system: panel of human cancer or normal cell lines; assay: Cell-TiterGlo viability assays in a panel of cell lines; assay type: cell-based; conditions: 5 d of treatment; sensitive: IC50 < 100 nM, resistant: IC50 > 100 nM
Procedure: as §1

[7] = after 5 d of treatment, 15 mg/kg

## Nc1nnc(-c2ccccc2O)cc1-c1ccc(N2CCC(N3CCC(c4ccc(OC5CCC(=O)NC5=O)cc4)CC3)CC2)cc1 (stereo not drawn) [AU-24118]
[1]
  IC50: 9.42 nM
[2]; 10mg/kg
  AUC(0-t): 4930 ng·h/mL
[2]; 100mg/kg
  AUC(0-t): 32200 ng·h/mL
[2]; 100mg/kg, read-out: Cmax/C0
  Cmax: 1930 ng/mL
[3]; CRPC VCaP xenograft mice, throughout the treatments
  body weight changes: no significant body weight changes
[3]; [7]
  apoptosis in tumors (cleaved PARP, TUNEL): induced apoptosis
  downregulation of direct targets (SMARCA2, SMARCA4, PBRM1) and lineage proteins (AR, ERG, C-Myc, PSA) in tumors, Western blot: robust downregulation
[3]; castrated CB17 SCID mice, enzalutamide 10 mg/kg oral gavage five times weekly, AU-24118 15 mg/kg oral gavage three times weekly
  tumor response: regression in every tumor; also recorded: regressed every tumor in the cohort
[4]
  ability to cause a decrease in cell viability: unable
[5]; CB17 SCID mice, 15 mg/kg
  H&E staining of spleen, kidney and liver: no discernible toxicity in normal tissues
[5]; CB17 SCID mice, 25 d treatment, 15 mg/kg
  blood panel of liver and kidney function (ALT, AST, BUN, CREA): slight elevation in alanine transaminases
[5]; CB17 SCID tumor-free mice, 20 mg/kg three times weekly
  tolerability (body weight, morbidity): noticeable weight loss after the first week, culminating in morbidity or fatality by the second week
[5]; CB17 SCID tumor-free mice, up to 15 mg/kg three times weekly
  tolerability (body weight): well-tolerated responses
[5]; mouse, in vivo, oral, CB17 SCID mice, dosed three times weekly
  MTD: 15 mg/kg
[6]
  cell viability preference across diverse cell lines: notable preference for inhibiting transcription factor–addicted cancer cells
